# Assay results published in patent US20140348880A1, “Ortho-Aminothiophenol Compounds and Uses Thereof” (Cape Breton University, priority 2013, published 2014).
# Where two headings read alike, the source gives them in different places.
# How the values were obtained:
# B. cereus [1] = assay: Disc diffusion zone of inhibition (Example 2); format: cell-based, Bacillus cereus; conditions: for zone of inhibition at 50 µg/disc: 50 μg/disc; for zone of inhibition at 200 µg/disc: 200 μg/disc
# Procedure: (§1) The growth medium was prepared by addition of Müller-Hinton agar (38 g) to 1 L distilled water under vigorous stirring and boiled for 10 min until complete dissolution. After cooling to 25° C., the pH value of the medium was 7.3±0.1. The medium was sterilized in an autoclave at 121° C. for 15 min at 20 psi, cooled to 45-50° C. and dispended into sterile Petri dishes on a leveled, horizontal surface to give uniform depth. Stock solutions of the microorganisms were incubated at 37° C. for 24 h and the turbidity of these microbial colony were adjusted visually with sterile saline (0.85% w/v NaCl) to 0.5 McFarland standards (bioMerieux, SA (France) they are made from barium sulfate (BaSO4). Within 15 min after adjusting the turbidity of the suspensions, the Petri dishes were inoculated using sterile cotton buds. The prepared antibiotic assay discs were placed on the surface of the seeded Müller-Hinton agar using flame sterilized forceps.
# (§2) Stock solutions of compounds of Formula I, Ia, Ib and Formula II, IIa, pharmaceutically acceptable salts thereof, and metal complexes thereof were made in DMSO and were micropipetted onto the discs for 25 to 200 μg/disc. The discs were dried at ambient temperature for 30-50 min before placement onto the seeded Petri dishes which were then incubated at 37° C. for 24 h. Averaged inhibition zone diameters measurements (mm) have an accuracy of ±0.5 mm; adjacent overlapping ZOI were determined using radii measurements. Antibiotic disc like (sulfamethoxazole 23.75 μg trimethoprim 1.25 μg)/disc, Gentamicin 10 μg/disc and DMSO were used as positive and negative standards (control).
# (§3) Antimicrobial test was carried out to evaluate the efficacy of compounds of Formula I, Ia, Ib and Formula II, IIa, pharmaceutically acceptable salts thereof, and metal complexes thereof, as well as control tests with control compounds, against six major pathogenic bacteria namely Bacillus cereus, Pseudomonas aeruginosa, Klebsiella pneumonia, Proteus vulgaris, Staphylococcus aureus and Escherichia coli.
# E. coli = assay: Disc diffusion zone of inhibition (Example 2); format: cell-based, Escherichia coli; conditions: for zone of inhibition at 200 µg/disc: 200 μg/disc
# Procedure: as §1, §2, §3
# P. aeruginosa = assay: Disc diffusion zone of inhibition (Example 2); format: cell-based, Pseudomonas aeruginosa; conditions: for zone of inhibition at 200 µg/disc: 200 μg/disc
# Procedure: as §1, §2, §3
# P. vulgaris = assay: Disc diffusion zone of inhibition (Example 2); format: cell-based, Proteus vulgaris; conditions: for zone of inhibition at 200 µg/disc: 200 μg/disc
# Procedure: as §1, §2, §3
# K. pnemonia = assay: Disc diffusion zone of inhibition (Example 2); format: cell-based, Klebsiella pneumonia; conditions: for zone of inhibition at 200 µg/disc: 200 μg/disc
# Procedure: as §1, §2, §3
# S. aureus [2] = assay: Disc diffusion zone of inhibition (Example 2); format: cell-based, Staphylococcus aureus; conditions: for zone of inhibition at 50 µg/disc: 50 μg/disc
# Procedure: as §1, §2, §3
# [3] = DPPH antioxidant activity test; conditions: 50 μg compound in 3 mL methanol; DPPH 150 μL 1 mM; 30 min, 25 °C; absorbance 517 nm
# Procedure: In addition to antibacterial properties, antioxidant activity was assessed in the compounds of Formula I and II and metal complexes thereof as antioxidant compounds play an important role in remediating the toxic effects of reactive oxygen species and other free radicals. The main characteristic of an antioxidant compound is its ability to trap free radicals. Highly reactive free radicals and oxygen species are present in biological systems from a wide variety of sources. Free radical damage is known to occur during bacterial and other microbial infections. Free radicals are produced by cells of the immune system during an active infection, and generally as a result of the inflammatory processes.
# DPPH (2,2-diphenyl-1-picryl-hydrazyl, 150 μL, 1 mM solution in methanol) was added to 3 mL methanol in a cuvette (0.5 in diameter) and UV-vis absorption recorded at 517 nm for baseline reading. In a cuvette, DPPH (150 μL, 1 mM solution in methanol) was added to a solution containing compound in 3 mL methanol. The reaction was allowed to stir at 25±1° C. for 30 min under exclusion of light. Absorbance was recorded at 517 nm against reference cuvette filled with methanol.
# B. cereus [4] = assay: Disc diffusion zone of inhibition (Example 2); format: cell-based; conditions: Bacillus cereus
# S. aureus [5] = assay: Disc diffusion zone of inhibition (Example 2); format: cell-based; conditions: Staphylococcus aureus
# Bacillus cereus = assay: In vitro disc diffusion assay, ZOI (Example 3); format: cell-based; conditions: B. cereus; control; 10 μg/disc
# Procedure: (§4) Sterile assay discs (6 mm diameter) were obtained from VWR Whatman and antibiotic assay discs (6 mm diameter) containing getamicin (10 μg/disc) and the combination drug sulfamethoxazole 23.75 μg/disc and trimethoprim 1.25 μg/disc were obtained from Becton, Dickinson and Company (USA). Dimethyl sulfoxide (DMSO) for microbial experiments was BioReagent™ grade and was purchased from Sigma-Aldrich. The nutrient broth and Müller-Hinton agar was purchased from Becton, Dickinson and Company (USA). Bacillus cereus, Pseudomonas aeruginosa (#27853), Klebsiella pneumonia (#13883), Proteus vulgaris (#13315), Staphylococcus aureus (#25923) and Escherichia coli (#25922) strains were obtained from the American Type Culture Collection (ATCC). All materials in contact with antimicrobial matter was treated for 40 min at 121° C. and 20 psi in a biohazard autoclave bag prior to waste disposing or washing. McFarland turbity standards containing barium sulfate were obtained from bioMérieux.
# as §1, with “the” for “these”, “colonies” for “colony”, “standards.” for “standards (bioMerieux, SA (France) they are made from barium sulfate (BaSO4).”
# (§5) Stock solutions of compounds and the Cu complexed compounds were made in DMSO and were micropipetted onto the discs for 25 to 200 μg compound/disc. The discs were dried at ambient temperature for 30-50 min before placement onto the seeded Petri dishes which were then incubated at 37° C. for 24 h. Averaged inhibition zone measurements (mm) have an accuracy of ±0.5 mm; adjacent overlapping ZOI were determined using radii measurements.
# [6] = test system: Escherichia coli (#25922); assay: In vitro disc diffusion assay, ZOI (Example 3); format: cell-based; conditions: E. coli; control; 10 μg/disc
# Procedure: as §4
# as §1, with “the” for “these”, “colonies” for “colony”, “standards.” for “standards (bioMerieux, SA (France) they are made from barium sulfate (BaSO4).”
# as §5
# [7] = test system: Klebsiella pneumonia (#13883); assay: In vitro disc diffusion assay, ZOI (Example 3); format: cell-based; conditions: K. pnemonia; control; 10 μg/disc
# Procedure: as §4
# as §1, with “the” for “these”, “colonies” for “colony”, “standards.” for “standards (bioMerieux, SA (France) they are made from barium sulfate (BaSO4).”
# as §5
# [8] = test system: Proteus vulgaris (#13315); assay: In vitro disc diffusion assay, ZOI (Example 3); format: cell-based; conditions: P. vulgaris; control; 10 μg/disc
# Procedure: as §4
# as §1, with “the” for “these”, “colonies” for “colony”, “standards.” for “standards (bioMerieux, SA (France) they are made from barium sulfate (BaSO4).”
# as §5
# [9] = test system: Pseudomonas aeruginosa (#27853); assay: In vitro disc diffusion assay, ZOI (Example 3); format: cell-based; conditions: P. aeruginosa; control; 10 μg/disc
# Procedure: as §4
# as §1, with “the” for “these”, “colonies” for “colony”, “standards.” for “standards (bioMerieux, SA (France) they are made from barium sulfate (BaSO4).”
# as §5
# [10] = test system: Staphylococcus aureus (#25923); assay: In vitro disc diffusion assay, ZOI (Example 3); format: cell-based; conditions: S. aureus; control; 10 μg/disc
# Procedure: as §4
# as §1, with “the” for “these”, “colonies” for “colony”, “standards.” for “standards (bioMerieux, SA (France) they are made from barium sulfate (BaSO4).”
# as §5
# [11] = Staphylococcus aureus, S. aureus
# [12] = Staphylococcus aureus, S. aureus, 200 μg/disc, read-out: Zone of inhibition
compound,measurement,setting,value
O=Cc1ccccn1 [2-pyridine carboxaldehyde],zone of inhibition at 50 µg/disc,B. cereus [1]; Bacillus cereus,20 mm
same,zone of inhibition at 50 µg/disc,"E. coli; Escherichia coli, 50 μg/disc",17 mm
same,zone of inhibition at 50 µg/disc,"P. aeruginosa; Pseudomonas aeruginosa, 50 μg/disc",24 mm
same,zone of inhibition at 50 µg/disc,"P. vulgaris; Proteus vulgaris, 50 μg/disc",22 mm
same,zone of inhibition at 50 µg/disc,"K. pnemonia; Klebsiella pneumoniae, 50 μg/disc",23 mm
same,zone of inhibition at 50 µg/disc,S. aureus [2]; [11],15 mm
same,% Antiox-Act,[3],67.0%
O=Cc1cccnc1 [3-pyridine carboxaldehyde],zone of inhibition at 200 µg/disc,B. cereus [1]; Bacillus cereus,27 mm
same,zone of inhibition at 200 µg/disc,E. coli; Escherichia coli,24 mm
same,zone of inhibition at 200 µg/disc,P. aeruginosa; Pseudomonas aeruginosa,23 mm
same,zone of inhibition at 200 µg/disc,P. vulgaris; Proteus vulgaris,21 mm
same,zone of inhibition at 200 µg/disc,K. pnemonia; Klebsiella pneumoniae,22 mm
same,zone of inhibition at 200 µg/disc,S. aureus [2]; [12],32 mm
O=Cc1ccncc1 [4-pyridine carboxaldehyde],zone of inhibition at 200 µg/disc,B. cereus [1]; Bacillus cereus,29 mm
same,zone of inhibition at 200 µg/disc,E. coli; Escherichia coli,25 mm
same,zone of inhibition at 200 µg/disc,P. aeruginosa; Pseudomonas aeruginosa,27 mm
same,zone of inhibition at 200 µg/disc,P. vulgaris; Proteus vulgaris,25 mm
same,zone of inhibition at 200 µg/disc,K. pnemonia; Klebsiella pneumoniae,26 mm
same,zone of inhibition at 200 µg/disc,S. aureus [2]; [12],30 mm
"C(=N\c1ccccc1SCc1ccccc1CSc1ccccc1/N=C/c1ccccn1)/c1ccccn1 [Bis [N,N′-(2-pyridinyl methylidene)]α,α′-bis((o-aminophenyl)thio)-ortho-xylene]",zone of inhibition at 200 µg/disc,B. cereus [1]; Bacillus cereus,7 mm
same,zone of inhibition at 200 µg/disc,S. aureus [2]; [12],7 mm
same,% Antiox-Act,[3],61.3%
C(=N\c1ccccc1SCc1ccccc1)/c1ccccn1 [N-(2-pyridinylmethylidene) S-benzyl-ortho-aminothiophenol],zone of inhibition at 75 µg/disc,"B. cereus [1]; Bacillus cereus, 75 μg/disc",7 mm
same,zone of inhibition at 75 µg/disc,"S. aureus [2]; Staphylococcus aureus, S. aureus, 75 μg/disc",11 mm
same,% Antiox-Act,[3],65.8%
"Nc1ccccc1SCc1ccccc1 [S-benzyl-ortho-aminothiophenol, S-benzyl ortho-aminothiophenol]",zone of inhibition at 166 µg/disc,"B. cereus [1]; Bacillus cereus, 166 μg/disc",12 mm
same,zone of inhibition at 166 µg/disc,"S. aureus [2]; Staphylococcus aureus, S. aureus, 166 μg/disc",11 mm
same,zone of inhibition at 333 µg/disc,B. cereus [4]; 333 μg/disc,15 mm
same,zone of inhibition at 666 µg/disc,B. cereus [4]; 666 μg/disc,16 mm
same,zone of inhibition at 333 µg/disc,S. aureus [5]; 333 μg/disc,13 mm
same,zone of inhibition at 666 µg/disc,S. aureus [5]; 666 μg/disc,15 mm
"Nc1ccccc1SCc1ccccc1CSc1ccccc1N [α,α′-bis((o-aminophenyl)thio)-ortho-xylene]",zone of inhibition at 200 µg/disc,B. cereus [1]; Bacillus cereus,8 mm
same,zone of inhibition at 200 µg/disc,S. aureus [2]; Staphylococcus aureus,7 mm
same,% Antiox-Act,[3],60.8%
"Nc1ccccc1SCc1ccc(CSc2ccccc2N)cc1 [α,α′-bis((o-aminophenyl)thio)-para-xylene]",zone of inhibition at 50 µg/disc,B. cereus [1]; Bacillus cereus,9 mm
same,zone of inhibition at 100 µg/disc,"B. cereus [1]; Bacillus cereus, 100 μg/disc",16 mm
same,zone of inhibition at 200 µg/disc,B. cereus [1]; Bacillus cereus,19 mm
same,zone of inhibition at 50 µg/disc,S. aureus [2]; [11],11 mm
same,zone of inhibition at 100 µg/disc,"S. aureus [2]; Staphylococcus aureus, S. aureus, 100 μg/disc",13 mm
same,zone of inhibition at 200 µg/disc,S. aureus [2]; [12],17 mm
same,% Antiox-Act,[3],65.4%
Gentamicin,Zone of Inhibition,B. cereus [1]; 10 μg/disc,25 mm
same,Zone of Inhibition,E. coli; 10 μg/disc,24 mm
same,Zone of Inhibition,P. aeruginosa; 10 μg/disc,20 mm
same,Zone of Inhibition,P. vulgaris; 10 μg/disc,24 mm
same,Zone of Inhibition,K. pnemonia; 10 μg/disc,25 mm
same,Zone of Inhibition,"S. aureus [2]; S. aureus, 10 μg/disc",25 mm
same,ZOI,Bacillus cereus,9.5 mm
same,ZOI,[6],9 mm
same,ZOI,[7],9.5 mm
same,ZOI,[8],9 mm
same,ZOI,[9],7 mm
same,ZOI,[10],9.5 mm
